Data set [1] relates to Hepatitis C virus. Description: Antiviral activity against HCV assessed as inhibition of viral replication by cell-based assay. In kind it is functional, organism-based, Hepacivirus hominis.
A short description of data set [2]: Inhibition of N-terminal hexa-histidine tagged HCV NS5B expressed in baculovirus infected insect cells using 12 nucleotide RNA oligo-uridylate primer and complementary poly-adenylate template assessed as incorporation of UMP-[5,6-3H] into the chain elongated from oligo-U primer by TopCount analysis. Details: species or system Hepacivirus hominis.
Data set [3] can be described thus: Inhibition of N-terminally tagged full-length HCV NS5B using biotinylated oligo(rU12), poly(rA) as template-primer assessed as incorporation of [3H]-UTP after 90 mins by Scintillation Proximity Assay. Details: species or system Hepacivirus hominis. A general note: In a scintillation proximity assay essentially only radioactivity close to the scintillant gives light.

For another data set, the target named is Genome polyprotein (Hepatitis C virus genotype 1b (isolate BK) (HCV), UniProt P26663). Put plainly: Inhibition of HCV genotype 1b BK NS5B expressed in Escherichia coli BL21 (DE3) after 1 hr.
Data set [4] deals with Hepatitis C virus. Description: Antiviral activity against HCV genotype 1b Con1 infected in human HuH7 cells assessed as inhibition of viral replication. The class given is functional, cell-based, Hepacivirus hominis. The note with it: genotype 1b Con1, Huh-7.
Data set [5] relates to Hepatitis C virus. Put plainly: Antiviral activity against HCV infected in human HuH7 cells assessed as inhibition of viral replication after 72 hrs by RT-PCR analysis. The class given is functional, organism-based, Hepacivirus hominis. The following applies: Huh-7, 72 h.
A short description of data set [6]: Inhibition of N-terminal hexa-histidine tagged full-length HCV genotype 1b NS5B expressed in baculovirus-infected cells using 5'-biotinylated oligo(rU12), poly(rA) as template-primer assessed as incorporation of [3H]-UTP after 90 mins by Scintillation Proximity Assay. Details: species or system Hepatitis C virus subtype 1b.
The nature of data set [7]: Octanol-buffer distribution co-efficient, log D of the compound at pH 7.4 by shaking-flask method. The class given is physicochemical.
Data set [8] can be described thus: Solubility of the compound in phosphate buffer at pH 7.2. In kind it is physicochemical.

Converted amounts (≈) assume the structure as drawn.

Chain of Genome polyprotein (P26663 2420-3010 limits assumed): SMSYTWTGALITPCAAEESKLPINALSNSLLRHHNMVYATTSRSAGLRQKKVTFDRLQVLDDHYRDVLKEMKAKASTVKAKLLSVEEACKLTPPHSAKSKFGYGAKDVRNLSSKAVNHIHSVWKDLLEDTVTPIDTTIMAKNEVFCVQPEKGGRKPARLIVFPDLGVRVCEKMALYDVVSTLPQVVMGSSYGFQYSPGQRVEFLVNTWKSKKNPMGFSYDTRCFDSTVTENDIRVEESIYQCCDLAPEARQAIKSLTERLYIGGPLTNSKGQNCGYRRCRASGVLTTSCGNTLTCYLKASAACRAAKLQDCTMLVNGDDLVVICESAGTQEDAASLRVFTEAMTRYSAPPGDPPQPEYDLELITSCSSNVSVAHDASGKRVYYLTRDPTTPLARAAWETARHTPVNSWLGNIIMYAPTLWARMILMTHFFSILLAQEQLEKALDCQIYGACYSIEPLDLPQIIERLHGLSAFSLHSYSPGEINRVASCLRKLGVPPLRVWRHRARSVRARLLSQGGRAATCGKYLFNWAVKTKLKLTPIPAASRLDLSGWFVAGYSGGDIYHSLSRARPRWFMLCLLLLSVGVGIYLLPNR

A word on the EC50: it is the concentration needed to bring the measured effect to its halfway point. With `O=C(O)c1ccc2c(C3CCCCC3)c(-c3ccccc3)n(CC(=O)N3CCOCC3)c2c1`, the EC50 in the data set on Hepatitis C virus [1] turned out to be 0.8 µM.
The IC50 is the midpoint of a concentration-inhibition curve. As to `O=C(O)c1ccc2c(c1)nc(-c1ccoc1)n2C1CCCCC1`, in data set [2], the half-inhibitory concentration (IC50) is 1.6 µM.
As to `O=C(O)COc1ccc2[nH]cc(C[C@H](NC(=O)c3ccc4c(c3)nc(-c3ccoc3)n4C3CCCCC3)C(=O)O)c2c1`, the IC50 in data set [3] was determined as 0.027 µM.
Take `CN(C)C(=O)Cn1c(-c2ccccc2)c(C2CCCCC2)c2sc(C(=O)O)cc21`: on Genome polyprotein, half-maximal inhibition (IC50) was put at 0.058 µM.
Take `CC(C)N1CCC(N(C)C(=O)Cn2c(-c3ccccc3)c(C3CCCCC3)c3sc(C(=O)O)cc32)C1` (centres undefined): inhibition against Genome polyprotein was half-maximal at 0.01 µM (IC50). Moreover, the EC50 in the data set on Hepatitis C virus [4] came to 0.13 µM.
As to `O=C(N[C@H](Cc1c[nH]c2ccc(O)cc12)c1cscn1)c1ccc2c(c1)nc(-c1ccoc1)n2C1CCCCC1`, the IC50 in data set [3] is 0.3 µM. In addition, in the data set with Hepatitis C virus [5], the 50% effective concentration (EC50) turned out to be 1.7 µM.
For the compound `CC(C)(NC(=O)c1ccc2c(c1)nc(-c1ccoc1)n2C1CCCCC1)C(=O)Nc1ccc(/C=C/C(=O)O)cc1`, in [6], the IC50 is 0.04 µM.
By logD is commonly meant the decadic logarithm of the distribution of all forms, ionised or not, between an organic phase and buffer at a given pH. Read a low logD as lower lipophilicity. What is called solubility is how much of the substance goes into solution per volume. Low readings indicate little dissolved substance, high ones much dissolved substance. Turning to `C[C@@H](NC(=O)c1ccc2c(c1)nc(-c1ccoc1)n2C1CCCCC1)C(=O)Nc1ccc(/C=C/C(=O)O)cc1`, the half-maximal inhibitory concentration (IC50) in data set [3] came to 0.13 µM. This compound registered a logD in data set [7] of 2.2. The compound further came in with a solubility in data set [8] of 171 µM (≈ 90 µg/mL). In addition, in the data set with Hepatitis C virus [5], the EC50 was determined as 6.9 µM.
Regarding `CC(C)CNCc1c(C(=O)O)sc2c(C3CCCCC3)c(-c3ccccc3)n(CC(=O)N(C)C3CCN(C(C)C)C3)c12` (centres undefined), on Genome polyprotein, the IC50 is 0.011 µM. Also, the EC50 with Hepatitis C virus [4] was 0.51 µM.
The like results for `CC(C)N1CC[C@@H](N2CCn3c(c(C4CCCCC4)c4sc(C(=O)O)cc43)-c3ccccc3C2)C1` were, in that order, 0.019 µM and 0.15 µM.
Take `COc1ccc(CCNC(=O)c2ccc3c(c2)nc(-c2ccccn2)n3C2CCCCC2)cc1OC`: the IC50 in [2] is 12 µM.
On to `O=C(O)/C=C/c1ccc(NC(=O)C2(NC(=O)c3ccc4c(c3)nc(-c3ccoc3)n4C3CCCCC3)CCCC2)cc1`, for which the half-maximal effective concentration (EC50) with Hepatitis C virus [1] stood at 0.55 µM.

The record behind these values is ChEMBL document CHEMBL3421554, “Discovery of HCV NS5B thumb site I inhibitors: core-refining from benzimidazole to indole scaffold” (Eur J Med Chem, 2015).
